{"source": "PubChem BioAssay AID1963430", "about": "(Molecular Pharmacology Branch, DTP, NCI, 2024);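 note: spheroids exposed to agents for 7 days before readout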;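 for viability, T/C: 100% = DMSO vehicle control viability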", "system": "521955-158-R2-J5-PDC complex spheroid growth, % test/control", "assay": "Anticancer human tumor 521955-158-R2-J5-PDC patient-derived pancreatic carcinoma cell line growth inhibition [Asc]", "details": "for IC50: curve of first compound; for viability, T/C: stronger effect = lower value", "procedure,_shortened": "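Complex solid-tumor spheroids incorporating human endothelial and mesenchymal stem cells received single agents or combinations over half-log dilution ranges anchored to clinical Cmax.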"}
{"smiles": "C#Cc1c(F)ccc2cc(O)cc(-c3ncc4c(N5CC6CCC(C5)N6)nc(OCC56CCCN5CC(F)C6)nc4c3F)c12", "note": "(stereo not given) + Cc1c(S(C)(=O)=O)c(-c2cc(F)cc(N3CCN(c4ccc(NS(=O)(=O)c5ccc(NC(CCN6CCC(C(=O)OCCCP(=O)(O)O)CC6)CSc6ccccc6)c(S(=O)(=O)C(F)(F)F)c5)cc4)CC3)c2)c(-c2ccc(Cl)cc2)n1C(C)C", "values": [{"measurement": "IC50", "setting": "second compound 0.1 µM", "result": "< 31.6", "unit": "nM"}, {"measurement": "IC50", "setting": "second compound 0.316 µM", "result": "< 31.6", "unit": "nM"}, {"measurement": "IC50", "setting": "second compound 1 µM", "result": "< 31.6", "unit": "nM"}, {"measurement": "IC50", "setting": "second compound 3.16 µM", "result": "< 31.6", "unit": "nM"}, {"measurement": "IC50", "setting": "second compound 10 µM", "result": "> 10000", "unit": "nM"}, {"measurement": "viability, T/C", "setting": "second compound 0.1 µM, first compound 0.0316 µM", "result": 44.7, "unit": "%"}, {"measurement": "viability, T/C", "setting": "second compound 0.1 µM, first compound 0.1 µM", "result": 30.4, "unit": "%"}, {"measurement": "viability, T/C", "setting": "second compound 0.1 µM, first compound 0.316 µM", "result": 38.7, "unit": "%"}, {"measurement": "viability, T/C", "setting": "second compound 0.1 µM, first compound 1 µM", "result": 33.9, "unit": "%"}, {"measurement": "viability, T/C", "setting": "second compound 0.1 µM, first compound 3.16 µM", "result": 38.5, "unit": "%"}, {"measurement": "viability, T/C", "setting": "second compound 0.1 µM, first compound 10 µM", "result": 34, "unit": "%"}, {"measurement": "viability, T/C", "setting": "second compound 0.316 µM, first compound 0.0316 µM", "result": 43.6, "unit": "%"}, {"measurement": "viability, T/C", "setting": "second compound 0.316 µM, first compound 0.1 µM", "result": 27.9, "unit": "%"}, {"measurement": "viability, T/C", "setting": "second compound 0.316 µM, first compound 0.316 µM", "result": 33.3, "unit": "%"}, {"measurement": "viability, T/C", "setting": "second compound 0.316 µM, first compound 1 µM", "result": 32.1, "unit": "%"}, {"measurement": "viability, T/C", "setting": "second compound 0.316 µM, first compound 3.16 µM", "result": 32.5, "unit": "%"}, {"measurement": "viability, T/C", "setting": "second compound 0.316 µM, first compound 10 µM", "result": 34.4, "unit": "%"}, {"measurement": "viability, T/C", "setting": "second compound 1 µM, first compound 0.0316 µM", "result": 31.3, "unit": "%"}, {"measurement": "viability, T/C", "setting": "second compound 1 µM, first compound 0.1 µM", "result": 38.4, "unit": "%"}, {"measurement": "viability, T/C", "setting": "second compound 1 µM, first compound 0.316 µM", "result": 39.3, "unit": "%"}, {"measurement": "viability, T/C", "setting": "second compound 1 µM, first compound 1 µM", "result": 31.8, "unit": "%"}, {"measurement": "viability, T/C", "setting": "second compound 1 µM, first compound 3.16 µM", "result": 28.8, "unit": "%"}, {"measurement": "viability, T/C", "setting": "second compound 1 µM, first compound 10 µM", "result": 29.4, "unit": "%"}, {"measurement": "viability, T/C", "setting": "second compound 3.16 µM, first compound 0.0316 µM", "result": 42.2, "unit": "%"}, {"measurement": "viability, T/C", "setting": "second compound 3.16 µM, first compound 0.1 µM", "result": 41.3, "unit": "%"}, {"measurement": "viability, T/C", "setting": "second compound 3.16 µM, first compound 0.316 µM", "result": 34.7, "unit": "%"}, {"measurement": "viability, T/C", "setting": "second compound 3.16 µM, first compound 1 µM", "result": 34.8, "unit": "%"}, {"measurement": "viability, T/C", "setting": "second compound 3.16 µM, first compound 3.16 µM", "result": 35.9, "unit": "%"}, {"measurement": "viability, T/C", "setting": "second compound 3.16 µM, first compound 10 µM", "result": 44.7, "unit": "%"}, {"measurement": "viability, T/C", "setting": "second compound 10 µM, first compound 0.0316 µM", "result": 174, "unit": "%"}, {"measurement": "viability, T/C", "setting": "second compound 10 µM, first compound 0.1 µM", "result": 152, "unit": "%"}, {"measurement": "viability, T/C", "setting": "second compound 10 µM, first compound 0.316 µM", "result": 155, "unit": "%"}, {"measurement": "viability, T/C", "setting": "second compound 10 µM, first compound 1 µM", "result": 152, "unit": "%"}, {"measurement": "viability, T/C", "setting": "second compound 10 µM, first compound 3.16 µM", "result": 113, "unit": "%"}, {"measurement": "viability, T/C", "setting": "second compound 10 µM, first compound 10 µM", "result": 79.6, "unit": "%"}]}
